Measurements: patent US9040713B2, “Methods of managing blood sugar levels and compositions related thereto” (EMORY UNIVERSITY, priority 2010, dated 2015)

Assays:
[1] = system: IGFR-IR hybrid; experiment: His-tagged chimaeric receptor phosphorylation in CHO cells; format: cell-based, human; details: 5 μM, 30 min
Procedure: (§1) (A) Chemical structure of 4524-E7. (B) Effect of 4524-E7 and other 1,4-naphthoquinone derivatives on IR phosphorylation in CHO-IR cells. CHO-IR cells were cultured in 96-well plates and treated with 5 μM compounds for 15 min at 37 C. Cells were lysed, and IR phosphorylations were tested by ELISA. The IR phosphorylation activities of the tested compounds were expressed as a percentage of the vehicle. (C) 4524-E7 and 1,4-naphthoquinone derivates activate IR and its downstream signaling in CHO-IR cells. […] The cell lysates were analyzed by immunoblotting with various indicated antibodies. The phosphorylated IR was immunoprecipitated using PY20 and analyzed by immunoblotting with anti-IR13 antibody. […] The phosphorylation of each receptor was determined by Western blot using specific antibodies as indicated. (E) 4524-E7 activates IR through its ICD. Upper panel: Diagram of chimaeric receptors. Lower panel: His-tagged wild-type IR, IGFR-IR, IR-IGFR, and IR-EGFR constructs were transfected into CHO cells followed vehicle or 5 μM 4524-E7 treatment for 30 min. Then the cells were lysated and the transfected receptor fused to His tag were pulled down with Ni+ beads, followed by western blot against anti-p-Tyr and anti-His. The cell lysates were tested with anti-p-Akt and anti-Akt.
(§2) The cDNA encoding wild type IR was introduced into the pcDNA3.1/V5-His-TOPO vector. […]

[2] = system: IR-IGFR; experiment: as above; format: cell-based, human; details: 5 μM, 30 min
Procedure: as §1, §2

[3] = target: T1, IR-EGFR (Homo sapiens, UniProt P00533+P06213); experiment: as above; format: cell-based; details: 5 μM, 30 min
T1 construct: the cDNA encoding extracellular IR was fused to intracellular IGFR or EGFR; expressed in transfected cells; host or cells: CHO
Procedure: as §1, §2

[4] = target: MET (Homo sapiens, UniProt P08581); experiment: RTK kinase profile screen assay; format: biochemical; details: 10 μM
[5] = target: GFP-IRTK R2; experiment: In vitro kinase assay of IRTK/IGF-1R kinase hybrids; format: biochemical, human; details: R2 region of IRTK replaced with IGF-1R
Procedure: Parental CHO cells were used as a negative control (Bottom panel). The fluorescence-labeled cells were analyzed on flow cytometry. (B) 4524-E7 protects IRTK from proteolysis. GST-IRTK was subjected to limited trypsin or chymotrypsin digestion in the presence of 4524-E7 (50 μM), ATPyS (5 μM) or both at 37° C. for 5 min. The reaction mixture was resolved by SDS-PAGE, followed by silver staining Cleaved fragments were asterisked. (C) 4524-E7 increases IRTK activity in vitro. Recombinant GST-IRTK, GST-IGFRTK, and GST-EGFRTK were incubated with different concentrations of 4524-E7 or 10 μM 2—NH2-NQ and the kinase activity was examined by monitoring the phosphorylation of histone H2B. (E) In vitro kinase activity of various IRTK/IGF-1R kinase hybrids. The GFP-tagged kinases were expressed in HEK293, immunoprecipitated and incubated with different concentrations of 4524-E7 as indicated. […] Expressions of the kinases were also verified (lower panel).
To test if these regions are the action sites of 4524-E7, several GFP-tagged hybrid kinases were generated with R1 (GFP-IRTK R1), R2 (GFP-IRTK R2) or both (GFP-IRTK R1+R2) regions of IRTK and replaced with the corresponding sequence of IGF-1R. These mutants were then used to perform the in vitro kinase assay in the presence of 4524-E7. […]

Chain of MET (P08581 25-1390): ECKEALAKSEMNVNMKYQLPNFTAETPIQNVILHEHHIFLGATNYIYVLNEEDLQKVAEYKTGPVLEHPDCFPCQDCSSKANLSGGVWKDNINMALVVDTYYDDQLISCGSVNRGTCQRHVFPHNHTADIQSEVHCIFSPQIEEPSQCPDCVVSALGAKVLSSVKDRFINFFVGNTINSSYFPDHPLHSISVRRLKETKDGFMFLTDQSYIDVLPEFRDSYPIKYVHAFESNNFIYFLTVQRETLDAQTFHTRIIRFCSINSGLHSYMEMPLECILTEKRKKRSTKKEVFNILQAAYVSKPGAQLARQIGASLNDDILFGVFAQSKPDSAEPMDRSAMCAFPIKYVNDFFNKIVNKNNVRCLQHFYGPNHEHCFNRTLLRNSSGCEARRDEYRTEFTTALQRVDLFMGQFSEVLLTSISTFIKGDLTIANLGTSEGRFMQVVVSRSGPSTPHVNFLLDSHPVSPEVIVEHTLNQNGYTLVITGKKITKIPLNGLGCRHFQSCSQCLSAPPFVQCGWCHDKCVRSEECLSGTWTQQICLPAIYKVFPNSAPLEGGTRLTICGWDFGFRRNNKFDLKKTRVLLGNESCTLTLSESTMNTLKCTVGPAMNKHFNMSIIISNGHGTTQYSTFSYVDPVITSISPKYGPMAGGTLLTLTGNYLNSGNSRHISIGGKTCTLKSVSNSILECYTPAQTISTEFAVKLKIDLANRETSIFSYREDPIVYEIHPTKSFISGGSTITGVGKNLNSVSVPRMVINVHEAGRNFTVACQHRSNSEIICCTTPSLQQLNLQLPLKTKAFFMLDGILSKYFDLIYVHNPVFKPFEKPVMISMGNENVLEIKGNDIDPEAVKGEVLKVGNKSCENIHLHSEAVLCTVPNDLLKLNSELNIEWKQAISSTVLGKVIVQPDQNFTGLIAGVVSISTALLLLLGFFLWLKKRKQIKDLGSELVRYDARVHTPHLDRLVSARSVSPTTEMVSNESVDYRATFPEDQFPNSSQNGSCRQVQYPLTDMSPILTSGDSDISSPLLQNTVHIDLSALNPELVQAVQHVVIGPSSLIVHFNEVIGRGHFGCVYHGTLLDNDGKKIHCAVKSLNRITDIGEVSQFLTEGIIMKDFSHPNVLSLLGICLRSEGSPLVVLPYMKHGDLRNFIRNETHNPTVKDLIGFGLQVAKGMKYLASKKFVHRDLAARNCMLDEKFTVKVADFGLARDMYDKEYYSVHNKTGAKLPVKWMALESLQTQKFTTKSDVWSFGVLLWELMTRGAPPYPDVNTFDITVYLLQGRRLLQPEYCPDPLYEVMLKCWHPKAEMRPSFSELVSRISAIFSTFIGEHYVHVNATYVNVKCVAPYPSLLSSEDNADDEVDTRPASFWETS
T1 sequence (P00533 669-1210 limits assumed, one chain of several): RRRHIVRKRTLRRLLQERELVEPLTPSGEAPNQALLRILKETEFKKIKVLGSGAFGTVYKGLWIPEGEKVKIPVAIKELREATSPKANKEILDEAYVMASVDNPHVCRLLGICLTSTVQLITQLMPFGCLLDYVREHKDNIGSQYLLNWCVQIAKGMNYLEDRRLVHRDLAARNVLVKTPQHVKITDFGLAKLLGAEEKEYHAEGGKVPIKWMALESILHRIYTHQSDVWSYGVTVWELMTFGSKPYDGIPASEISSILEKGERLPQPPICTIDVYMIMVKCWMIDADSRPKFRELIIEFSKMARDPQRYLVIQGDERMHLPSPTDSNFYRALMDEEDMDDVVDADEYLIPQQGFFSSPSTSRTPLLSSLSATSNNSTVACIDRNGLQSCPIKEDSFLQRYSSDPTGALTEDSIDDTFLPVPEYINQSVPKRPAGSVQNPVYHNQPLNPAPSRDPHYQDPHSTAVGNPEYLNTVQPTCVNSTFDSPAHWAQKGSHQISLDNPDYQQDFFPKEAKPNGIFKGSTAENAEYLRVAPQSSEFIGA

tyrosine phosphorylation of chimaeric receptor [3]: not phosphorylated | inhibition of MET [4]: slightly inhibited | kinase stimulatory effect on hybrid kinase [5]: abolishes the kinase stimulatory effect
SMILES: O=C1c2ccccc2C(=O)C2SC(Nc3ccc(Cl)cc3)=NC12 (centres unmarked) [4524-E7, 2-((4-chlorophenyl)amino)naphtho[2,3-d]thiazole-4,9(3aH,9aH)-dione]
tyrosine phosphorylation of chimaeric receptor [1]: selective tyrosine phosphorylation | tyrosine phosphorylation of chimaeric receptor [2]: not phosphorylated
